The values that follow come from ChEMBL document CHEMBL1697723, “A predictive ligand-based Bayesian model for human drug-induced liver injury” (Drug Metab Dispos, 2010).

One data set deals with Hepatotoxicity. Kind of data set: Human drug-induced liver injury (DILI) modelling dataset from Ekins et al.
Conditions: not given
As for `COc1cccc2c1C(=O)c1c(O)c3c(c(O)c1C2=O)C[C@@](O)(C(=O)CO)C[C@@H]3O[C@H]1C[C@H](N)[C@H](O)[C@H](C)O1` [DOXORUBICIN], the Hepatotoxicity entry is listed as “DILI negative (test set)”.
For the molecule `Clc1ccc(COC(Cn2ccnc2)c2ccc(Cl)cc2Cl)cc1.O=[N+]([O-])O` (stereo not given) [ECONAZOLE NITRATE], the Hepatotoxicity entry is reported as “DILI negative (test set)”.
On the same count and under the same terms, in the case of `CC[N+](C)(C)c1cccc(O)c1.[Cl-]` [EDROPHONIUM CHLORIDE] it was “DILI negative (training set)”.
The same measure, in the same setting: in the case of `CCN(CC)C(=O)/C(C#N)=C/c1cc(O)c(O)c([N+](=O)[O-])c1` [ENTACAPONE] it was “DILI negative (test set)”; in that of `COc1cccc2c1C(=O)c1c(O)c3c(c(O)c1C2=O)C[C@@](O)(C(=O)CO)C[C@@H]3O[C@H]1C[C@H](N)[C@@H](O)[C@H](C)O1` [EPIRUBICIN], “DILI negative (test set)”; in that of `CCCCc1ncc(/C=C(\Cc2cccs2)C(=O)O)n1Cc1ccc(C(=O)O)cc1` [EPROSARTAN], “DILI negative (test set)”.
`C[C@@H](CO)NC(=O)[C@@H]1C=C2c3cccc4[nH]cc(c34)C[C@H]2N(C)C1.O=C(O)/C=C\C(=O)O` [ERGONOVINE MALEATE]: the Hepatotoxicity entry was “DILI negative (training set)”.
Consider `CN1C[C@H](C(=O)N[C@]2(C)O[C@@]3(O)[C@@H]4CCCN4C(=O)[C@H](Cc4ccccc4)N3C2=O)C=C2c3cccc4[nH]cc(c34)C[C@H]21.CN1C[C@H](C(=O)N[C@]2(C)O[C@@]3(O)[C@@H]4CCCN4C(=O)[C@H](Cc4ccccc4)N3C2=O)C=C2c3cccc4[nH]cc(c34)C[C@H]21.O=C(O)C(O)C(O)C(=O)O` [ERGOTAMINE TARTRATE], for which the Hepatotoxicity entry was “DILI negative (test set)”.
With `CCC(=O)O[C@H]1[C@H](O[C@@H]2[C@@H](C)[C@H](O[C@H]3C[C@@](C)(OC)[C@@H](O)[C@H](C)O3)[C@@H](C)C(=O)O[C@H](CC)[C@@](C)(O)[C@H](O)[C@@H](C)C(=O)[C@H](C)C[C@@]2(C)O)O[C@H](C)C[C@@H]1N(C)C.CCCCCCCCCCCCOS(=O)(=O)O` [ERYTHROMYCIN ESTOLATE], the Hepatotoxicity result is on record as “DILI positive (training set)”.
Same read-out and setting: then `CC[C@H]1OC(=O)[C@H](C)[C@@H](O[C@H]2C[C@@](C)(OC)[C@@H](O)[C@H](C)O2)[C@H](C)[C@@H](O[C@@H]2O[C@H](C)C[C@H](N(C)C)[C@H]2O)[C@](C)(O)C[C@@H](C)C(=O)[C@H](C)[C@@H](O)[C@]1(C)O` [ERYTHROMYCIN], with “DILI negative (training set)”; and `C[C@]12CC[C@@H]3c4ccc(O)cc4CC[C@H]3[C@@H]1CC[C@@H]2O[C@@H]1O[C@H](C(=O)O)[C@@H](O)[C@H](O)[C@H]1O` [ESTRADIOL 17B GLUCURONIDE], with “DILI positive (training set)”.
On the same count and under the same terms, then `C[C@]12CC[C@@H]3c4ccc(O)cc4CC[C@H]3[C@@H]1CC[C@@H]2O` [ESTRADIOL], with “DILI negative (training set)”.
The same measure, in the same setting: then `C[C@]12CC[C@@H]3c4ccc(O)cc4CC[C@H]3[C@@H]1CCC2=O` [ESTRONE], with “DILI positive (training set)”; and `CS(=O)(=O)OCCOS(C)(=O)=O` [ETHANE DIMETHANE SULFONATE], with “DILI positive (test set)”.
On to `C#C[C@]1(O)CC[C@H]2[C@@H]3CCc4cc(O)ccc4[C@H]3CC[C@@]21C` [ETHINYL ESTRADIOL], for which the Hepatotoxicity entry was “DILI positive (test set)”.
The same measure, in the same setting: in the case of `CCSCC[C@H](N)C(=O)O` [ETHIONINE] it was “DILI positive (training set)”.
On the same count and under the same terms, then `CCC1(C)CC(=O)NC1=O` (stereo not given) [ETHOSUXIMIDE], with “DILI positive (test set)”.
The same measure, in the same setting: in the case of `C#C[C@]1(OC(C)=O)CC[C@H]2[C@@H]3CCC4=C[C@@H](OC(C)=O)CC[C@@H]4[C@H]3CC[C@@]21C` [ETHYNODIOL DIACETATE] it was “DILI positive (training set)”; in that of `NC(=O)OCC(COC(N)=O)c1ccccc1` [FELBAMATE], “DILI positive (training set)”.
With `CC(C)OC(=O)C(C)(C)Oc1ccc(C(=O)c2ccc(Cl)cc2)cc1` [FENOFIBRATE], the Hepatotoxicity entry is reported as “DILI positive (training set)”.
Same read-out and setting: then `CC(C(=O)[O-])c1cccc(Oc2ccccc2)c1.[Na+]` (stereo not given) [FENOPROFEN SODIUM], with “DILI positive (training set)”; and `O=c1[nH]c(=O)n([C@@H]2O[C@H](CO)[C@@H](O)[C@@H]2F)cc1I` [FIALURIDINE], with “DILI positive (test set)”.
Still for that read-out and setting: then `O=C(COc1ccc(Cl)cc1)N1CCN(Cc2ccc3c(c2)OCO3)CC1` [FIPEXIDE], with “DILI positive (test set)”; and `CC(=O)O.O=C(NCC1CCCCN1)c1cc(OCC(F)(F)F)ccc1OCC(F)(F)F` (stereo not given) [FLECAINIDE ACETATE], with “DILI positive (training set)”; and `O=c1[nH]c(=O)n([C@H]2C[C@H](O)[C@@H](CO)O2)cc1F` [FLOXURIDINE], with “DILI positive (training set)”.
Same read-out and setting: then `Nc1nc(=O)[nH]cc1F` [FLUCYTOSINE], with “DILI positive (training set)”.
Consider `CC(=O)OCC(=O)[C@@]1(O)CC[C@H]2[C@@H]3CCC4=CC(=O)CC[C@]4(C)[C@@]3(F)[C@@H](O)C[C@@]21C` [FLUDROCORTISONE ACETATE], for which the Hepatotoxicity result is listed as “DILI negative (training set)”.
Still for that read-out and setting: then `O=C(O)c1ccccc1Nc1cccc(C(F)(F)F)c1` [FLUFENAMIC ACID], with “DILI negative (test set)”; and `CCOC(=O)c1ncn2c1CN(C)C(=O)c1cc(F)ccc1-2` [FLUMAZENIL], with “DILI negative (training set)”.
Same read-out and setting: in the case of `C[C@H](C(=O)O)c1ccc2oc(-c3ccc(F)cc3)nc2c1` [FLUNOXAPROFEN] it was “DILI negative (test set)”; in that of `O=c1[nH]cc(F)c(=O)[nH]1` [FLUOROURACIL], “DILI positive (test set)”; in that of `CC(C(=O)O)c1ccc(-c2ccccc2)c(F)c1` (stereo not given) [FLURBIPROFEN], “DILI positive (training set)”.
Same read-out and setting: then `CC(C)C(=O)Nc1ccc([N+](=O)[O-])c(C(F)(F)F)c1` [FLUTAMIDE], with “DILI positive (training set)”; and `COCCCC/C(=N\OCCN)c1ccc(C(F)(F)F)cc1` [FLUVOXAMINE], with “DILI positive (training set)”; and `Nc1nc2ncc(CNc3ccc(C(=O)N[C@@H](CCC(=O)O)C(=O)O)cc3)nc2c(=O)[nH]1` [FOLIC ACID], with “DILI negative (training set)”.
With `O=C(O)P(=O)(O)O` [FOSCARNET], the Hepatotoxicity result was “DILI negative (test set)”.
Same read-out and setting: in the case of `O=C1OCCN1/N=C/c1ccc([N+](=O)[O-])o1` [FURAZOLIDONE] it was “DILI positive (training set)”; in that of `NCC1(CC(=O)O)CCCCC1` [GABAPENTIN], “DILI negative (training set)”; in that of `CC[N+](CC)(CC)CCOc1cccc(OCC[N+](CC)(CC)CC)c1OCC[N+](CC)(CC)CC.[I-].[I-].[I-]` [GALLAMINE TRIETHIODIDE], “DILI negative (training set)”.
For the molecule `COc1c(N2CCNC(C)C2)c(F)cc2c(=O)c(C(=O)O)cn(C3CC3)c12` (stereo not given) [GATIFLOXACIN], the Hepatotoxicity entry was “DILI negative (training set)”.
The same measure, in the same setting: then `COc1cc2ncnc(Nc3ccc(F)c(Cl)c3)c2cc1OCCCN1CCOCC1` [GEFITINIB], with “DILI positive (test set)”; and `Cc1ccc(C)c(OCCCC(C)(C)C(=O)O)c1` [GEMFIBROZIL], with “DILI positive (training set)”.
On to `Cc1ccc(S(=O)(=O)NC(=O)NN2CC3CCCC3C2)cc1` (stereo not given) [GLICLAZIDE], for which the Hepatotoxicity entry is given as “DILI negative (training set)”.
Same read-out and setting: then `CCC1=C(C)CN(C(=O)NCCc2ccc(S(=O)(=O)NC(=O)N[C@H]3CC[C@H](C)CC3)cc2)C1=O` [GLIMEPIRIDE], with “DILI negative (training set)”; and `N[C@H]1C(O)O[C@H](CO)[C@@H](O)[C@@H]1O` (stereo not given in full) [GLUCOSAMINE], with “DILI positive (training set)”.
On the same count and under the same terms, then `CCC1(c2ccccc2)CCC(=O)NC1=O` (stereo not given) [GLUTETHIMIDE], with “DILI positive (test set)”.
On the same count and under the same terms, in the case of `COC1=CC(=O)C[C@@H](C)[C@]12Oc1c(Cl)c(OC)cc(OC)c1C2=O` [GRISEOFULVIN] it was “DILI positive (training set)”.
Turning to `N=C(N)NCCN1CCCCCCC1.N=C(N)NCCN1CCCCCCC1.O=S(=O)(O)O` [GUANETHIDINE SULFATE], the Hepatotoxicity result is given as “DILI positive (test set)”.
On the same count and under the same terms, in the case of `Oc1c(Cl)cc(Cl)c(Cl)c1Cc1c(O)c(Cl)cc(Cl)c1Cl` [HEXACHLOROPHENE] it was “DILI positive (test set)”.
On to `CCN(CC)CCNc1ccc(CO)c2sc3ccccc3c(=O)c12` [HYCANTHONE], for which the Hepatotoxicity entry was “DILI positive (training set)”.
Same read-out and setting: then `NN` [HYDRAZINE], with “DILI positive (test set)”.

The data set is the same for the next values; noted with them: Liver.
For the molecule `C=C1CC[C@H](O)C/C1=C/C=C1\CCC[C@]2(C)[C@@H]([C@H](C)/C=C/[C@H](C)C(C)C)CC[C@@H]12` [ERGOCALCIFEROL], the Hepatotoxicity result was “DILI negative (training set)”.
Still for that read-out and setting: in the case of `OCCO` [ETHYLENE GLYCOL] it was “DILI positive (test set)”.
On the same count and under the same terms, then `COc1cc([C@@H]2c3cc4c(cc3[C@@H](O[C@@H]3O[C@@H]5CO[C@@H](C)O[C@H]5[C@H](O)[C@H]3O)[C@H]3COC(=O)[C@H]23)OCO4)cc(OC)c1O` [ETOPOSIDE], with “DILI positive (training set)”.
The same measure, in the same setting: then `NC(N)=Nc1nc(CSCCC(N)=NS(N)(=O)=O)cs1` [FAMOTIDINE], with “DILI negative (training set)”.
Consider `CC(C)(C(=O)O)c1ccc(C(O)CCCN2CCC(C(O)(c3ccccc3)c3ccccc3)CC2)cc1` (stereo not given) [FEXOFENADINE], for which the Hepatotoxicity entry is “DILI negative (test set)”.
Turning to `OC(Cn1cncn1)(Cn1cncn1)c1ccc(F)cc1F` [FLUCONAZOLE], the Hepatotoxicity result is given as “DILI positive (training set)”.
On the same count and under the same terms, then `CC(C)n1c(/C=C/C(O)CC(O)CC(=O)O)c(-c2ccc(F)cc2)c2ccccc21` (stereo not given) [FLUVASTATIN], with “DILI negative (training set)”.
Turning to `O=C(OCC(O)CO)c1ccccc1Nc1ccnc2cc(Cl)ccc12` (stereo not given) [GLAFENINE], the Hepatotoxicity result is given as “DILI positive (training set)”.
Still for that read-out and setting: then `Cc1c(F)c(N2CCNC(C)C2)cc2c1c(=O)c(C(=O)O)cn2C1CC1` (stereo not given) [GREPAFLOXACIN], with “DILI positive (test set)”.
